Results: paper PMC11891828, “Olfactory Receptor Responses to Pure Odorants in Drosophila melanogaster” (The European Journal of Neuroscience, 2025)

Tests used:
Assay in all cases: in vivo GCaMP6m calcium imaging of antennal neurons, GC-purified odorant
[1] = target: T1, Or56a (Drosophila melanogaster, UniProt Q9V8Y7); conditions: activation; dose series extended to 10^-12 dilution
T1 construct: native receptor in situ in antennal olfactory sensory neurons of living flies; Or56a-Gal4 drives UAS-GCaMP6m reporter; with Odorant receptor coreceptor
T1 sequence (Q9V8Y7 1-419): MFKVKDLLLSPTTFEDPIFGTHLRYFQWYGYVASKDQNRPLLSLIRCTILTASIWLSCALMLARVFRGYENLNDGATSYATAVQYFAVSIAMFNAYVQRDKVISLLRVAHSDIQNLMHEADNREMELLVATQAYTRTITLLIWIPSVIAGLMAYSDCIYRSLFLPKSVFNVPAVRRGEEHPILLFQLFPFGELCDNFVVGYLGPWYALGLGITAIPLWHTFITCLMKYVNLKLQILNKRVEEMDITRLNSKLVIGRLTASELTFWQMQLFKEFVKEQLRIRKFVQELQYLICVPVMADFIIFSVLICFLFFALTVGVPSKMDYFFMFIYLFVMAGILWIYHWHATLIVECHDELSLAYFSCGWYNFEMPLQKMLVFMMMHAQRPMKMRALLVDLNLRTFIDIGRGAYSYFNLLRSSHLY
T1 sequence (Q9VNB5 1-486 partner): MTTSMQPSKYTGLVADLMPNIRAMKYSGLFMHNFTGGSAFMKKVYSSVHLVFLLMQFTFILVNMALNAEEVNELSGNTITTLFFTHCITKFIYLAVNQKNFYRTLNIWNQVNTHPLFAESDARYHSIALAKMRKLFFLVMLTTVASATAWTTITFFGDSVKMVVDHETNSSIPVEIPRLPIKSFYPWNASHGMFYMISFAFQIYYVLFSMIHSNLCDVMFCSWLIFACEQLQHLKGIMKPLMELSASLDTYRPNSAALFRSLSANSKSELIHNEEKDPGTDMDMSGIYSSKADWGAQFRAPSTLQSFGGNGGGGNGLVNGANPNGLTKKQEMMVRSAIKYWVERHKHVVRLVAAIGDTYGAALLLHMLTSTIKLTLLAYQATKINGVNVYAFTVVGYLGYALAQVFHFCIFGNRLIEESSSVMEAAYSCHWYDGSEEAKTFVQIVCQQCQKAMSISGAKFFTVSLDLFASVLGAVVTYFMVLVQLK

[2] = target: T2, Or10a (Drosophila melanogaster, UniProt Q9VYZ1); conditions: activation; headspace of mineral-oil dilutions 10^-6, 10^-4, 10^-2
T2 construct: native receptor in situ in antennal olfactory sensory neurons of living flies; Or10a-Gal4 drives UAS-GCaMP6m reporter; with Odorant receptor coreceptor
T2 sequence (Q9VYZ1 1-406): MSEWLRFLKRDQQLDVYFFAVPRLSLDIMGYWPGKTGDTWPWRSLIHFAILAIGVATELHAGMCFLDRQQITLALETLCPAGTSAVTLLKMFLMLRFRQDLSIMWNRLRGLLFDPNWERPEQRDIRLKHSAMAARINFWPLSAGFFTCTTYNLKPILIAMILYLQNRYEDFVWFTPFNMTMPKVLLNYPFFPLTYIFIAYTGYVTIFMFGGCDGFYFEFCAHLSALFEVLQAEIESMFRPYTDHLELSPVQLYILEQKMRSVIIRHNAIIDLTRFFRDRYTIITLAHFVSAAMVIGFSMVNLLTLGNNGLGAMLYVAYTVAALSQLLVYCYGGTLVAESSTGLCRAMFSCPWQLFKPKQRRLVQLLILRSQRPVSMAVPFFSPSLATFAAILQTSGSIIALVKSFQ
T2 sequence (Q9VNB5 1-486 partner): T1 sequence (Q9VNB5 1-486 partner)

[3] = target: T3, Or92a (Drosophila melanogaster, UniProt Q9VDM1); conditions: activation, biphasic; polar GC column; n = 4
T3 construct: native receptor in situ in antennal olfactory sensory neurons of living flies; Or92a-Gal4 drives UAS-GCaMP6m reporter; with Odorant receptor coreceptor
T3 sequence (Q9VDM1 1-408): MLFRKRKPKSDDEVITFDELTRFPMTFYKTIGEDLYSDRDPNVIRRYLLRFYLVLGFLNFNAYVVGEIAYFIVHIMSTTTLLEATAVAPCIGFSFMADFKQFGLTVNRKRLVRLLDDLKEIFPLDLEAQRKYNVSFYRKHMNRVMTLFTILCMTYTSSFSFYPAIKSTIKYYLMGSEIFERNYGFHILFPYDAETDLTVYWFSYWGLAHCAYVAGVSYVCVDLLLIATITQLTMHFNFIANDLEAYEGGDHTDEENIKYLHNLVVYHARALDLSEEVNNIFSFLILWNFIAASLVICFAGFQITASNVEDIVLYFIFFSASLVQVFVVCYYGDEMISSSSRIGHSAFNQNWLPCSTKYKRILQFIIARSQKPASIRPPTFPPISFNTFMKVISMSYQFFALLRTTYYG
T3 sequence (Q9VNB5 1-486 partner): T1 sequence (Q9VNB5 1-486 partner)

[4] = target: T4, Or47a (Drosophila melanogaster, UniProt P81921); conditions: activation; headspace of mineral-oil dilutions
T4 construct: native receptor in situ in antennal olfactory sensory neurons of living flies; Or47a-Gal4 drives UAS-GCaMP6m reporter; with Odorant receptor coreceptor
T4 sequence (P81921 1-385): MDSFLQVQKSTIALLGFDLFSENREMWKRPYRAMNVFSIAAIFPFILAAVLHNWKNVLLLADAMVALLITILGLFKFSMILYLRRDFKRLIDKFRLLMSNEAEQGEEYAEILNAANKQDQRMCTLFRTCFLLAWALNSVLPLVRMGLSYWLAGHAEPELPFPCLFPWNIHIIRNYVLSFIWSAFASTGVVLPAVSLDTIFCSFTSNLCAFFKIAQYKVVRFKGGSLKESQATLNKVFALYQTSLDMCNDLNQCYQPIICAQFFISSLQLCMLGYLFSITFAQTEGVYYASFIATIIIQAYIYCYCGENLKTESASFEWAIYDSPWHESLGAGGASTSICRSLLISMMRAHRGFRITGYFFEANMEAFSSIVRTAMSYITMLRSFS
T4 sequence (Q9VNB5 1-486 partner): T1 sequence (Q9VNB5 1-486 partner)

[5] = target: T3, Or92a; conditions: activation, biphasic; polar GC column; n = 4; remark: listed apart in the source

Structure (SMILES): CC1CCCC2(C)CCCCC12O (racemic) [2MNL, (±)-geosmin]
- in vivo GCaMP6m calcium imaging of antennal neurons, GC-purified odorant [1]: We found strong responses to geosmin and none to any of the other substances

Structure (SMILES): CCOC(=O)c1ccccc1 [2EBM, ethyl benzoate]
- in vivo GCaMP6m calcium imaging of antennal neurons, GC-purified odorant [2]: good ligands were methyl benzoate and ethyl benzoate

Structure (SMILES): C[C@H](O)[C@@H](C)O [MBDL, meso-2,3-Butanediol]
- in vivo GCaMP6m calcium imaging of antennal neurons, GC-purified odorant [3]: the meso isomer, identical to 2R,3S) gave a weak response only

Structure (SMILES): COC(=O)c1ccccc1 [MBZM, methyl benzoate]
- in vivo GCaMP6m calcium imaging of antennal neurons, GC-purified odorant [2]: good ligands were methyl benzoate and ethyl benzoate

Structure (SMILES): COC(=O)c1ccccc1O [MSAM, methyl salicylate]
- in vivo GCaMP6m calcium imaging of antennal neurons, GC-purified odorant [2]: The best ligand was methyl salicylate

Structure (SMILES): CCCCCOC(C)=O [PACE, pentyl acetate]
- in vivo GCaMP6m calcium imaging of antennal neurons, GC-purified odorant [4]: We found strong responses to pentyl acetate (significant to very low concentrations

Structure (SMILES): C[C@@H](O)[C@@H](C)O [RBDL, (2R,3R)-(−)-2,3-Butanediol]
- calcium response [5]: ~ 15%

Structure (SMILES): C[C@H](O)[C@H](C)O [SBDL, (2S,3S)-(+)-2,3-Butanediol]
- calcium response [5]: > 40%
